How the values were obtained:
human adipose stem cells [1] = assay: Growth ability (BrdU assay); format: cell-based; details: FIG. 6b
Method: 1. Growth Ability (BrdU Assay) DNA polymerization occurring during cell growth was quantitated using BrdU. The same number of isolated human adipose stem cells (2×10^4 cells each) were cultured in a culture dish in α-MEM containing 10-100 μM glycerol and 10% FBS. […] In addition, the degree of DNA polymerization was evaluated by BrdU assay in order to further investigate the ability of cell growth and differentiation.

human adipose stem cells [2] = assay: Culturing of adipose stem cells in medium containing glycerol, cell counting; format: cell-based
Method: Through experiments to elucidate the mechanism of improved growth ability observed in coculturing with adipocytes, The present inventors have confirmed that the fat metabolite glycerol is one of the important factors and found out that the growth ability and differentiation efficiency can be enhanced only with glycerol, without adipocytes. […] […] […] In addition, the degree of DNA polymerization was evaluated by BrdU assay in order to further investigate the ability of cell growth and differentiation.

[3] = system: human adipose stem cells cocultured with HUVECs; assay: Matrigel tube formation assay after coculturing with HUVECs; format: cell-based; details: FIG. 8; adipose stem cells exposed to glycerol vs not exposed
Method: 3. Tube Formation Assay Vascular tube formation ability was observed after coculturing the cells with human umbilical vein endothelial cells (HUVECs). Differentiation potency was evaluated by Matrigel tube formation assay, which is widely used to compare formation of capillary-like structures in vitro, after coculturing human adipose stem cells with HUVECs.

AKT = assay: Analysis of activation mechanism: degree of AKT activation (pAKT/tAKT); format: cell-based, human; details: FIG. 7; decreased again by inhibition of aquaporins (AQ1 and AQ9)
Method: Then, protein was extracted from the cells of each group and the degree of AKT activation, which is a measure of cell activity, was measured. […] The degree of AKT activation is evaluated from the ratio of phosphorylated AKT (pAKT) to total AKT (tAKT). The total AKT was normalized with β-actin which is normally expressed in cells.

## OCC(O)CO [glycerol]
Human adipose stem cells [1]; with glycerol concentration
  BrdU incorporation owing to cell division: increased BrdU incorporation
Human adipose stem cells [1]; group G1
  DNA synthesis (BrdU assay): showed active DNA synthesis
Human adipose stem cells [1]; group G10 (10 μM glycerol)
  DNA synthesis (BrdU assay): showed active DNA synthesis
Human adipose stem cells [2]; FIG. 6, cell number, BrdU, morphology
  most effective glycerol concentration: 10 µM
Human adipose stem cells [2]; FIG. 6a, adipose stem cells cultured in medium containing glycerol, by glycerol concentration
  cell number: increased in a glycerol concentration-dependent manner
Human adipose stem cells [2]; G10 (10 μM glycerol), α-MEM with 10% FBS, 2×10^4 cells seeded, FIG. 6a
  cell number versus control groups: showed a cell number larger than those of the negative control group “control” and the positive control group “bFGF (4 ng/mL)”
Human adipose stem cells [2]; glycerol concentration 500 μM
  cytotoxicity: cytotoxicity was observed
[3]
  vascular tube formation ability: increased vascular structures and densities
AKT
  AKT activity: increased AKT activity

Source: patent US8697441B2, “Method of inducing high activity of human adipose stem cell and medium therefor” (Seoul National University Hospital, priority 2009, dated 2014)
